From article PMC4936272 (Bioorganic & medicinal chemistry letters, 2016)

What was measured:
Male ICR mice = experiment: Mouse tail flick test; format: in vivo; conditions: for Analgesia in tail flick test: 50 mg/kg intraperitoneal (IP); for Analgesia in tail flick test, dose-response: lower doses than 50 mg/kg IP
human FAAH = biological target: T1, human FAAH (Homo sapiens, UniProt O00519); experiment: Reversibility of FAAH inactivation by exhaustive dialysis; conditions: 144 hrs dialysis at 4°C after complete inactivation
T1 sequence (O00519 34-579): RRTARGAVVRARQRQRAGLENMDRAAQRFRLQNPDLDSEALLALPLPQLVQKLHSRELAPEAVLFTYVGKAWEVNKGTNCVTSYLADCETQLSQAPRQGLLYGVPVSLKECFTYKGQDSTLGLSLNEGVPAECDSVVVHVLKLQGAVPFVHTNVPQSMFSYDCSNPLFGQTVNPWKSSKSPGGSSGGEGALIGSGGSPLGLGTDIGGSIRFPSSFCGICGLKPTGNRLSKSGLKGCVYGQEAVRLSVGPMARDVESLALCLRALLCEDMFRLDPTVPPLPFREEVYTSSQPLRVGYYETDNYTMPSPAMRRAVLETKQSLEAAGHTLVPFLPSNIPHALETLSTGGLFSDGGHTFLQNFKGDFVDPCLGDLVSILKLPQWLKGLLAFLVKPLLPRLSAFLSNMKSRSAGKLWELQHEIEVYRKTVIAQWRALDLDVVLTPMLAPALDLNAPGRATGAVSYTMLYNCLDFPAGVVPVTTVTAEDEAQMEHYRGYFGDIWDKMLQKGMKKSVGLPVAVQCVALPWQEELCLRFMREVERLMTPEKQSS

FAAH = conditions: cited from earlier work

Row | Compound | Analgesia in tail flick test (Male ICR mice) | Analgesia in tail flick test, dose-response (Male ICR mice) | also measured
1 | O=C(Oc1ccccc1)N1CCC(c2nc(C3=NOC(c4ccccc4)C3)cs2)CC1 (stereo not shown) [Compound 1a, phenyl 4-[4-(4,5-dihydro-5-phenyl-3-isoxazolyl)-2-thiazolyl]-1-piperidinecarboxylate] | significant analgesic effects | failed to produce significant analgesia | –
2 | N#Cc1ccc(OC(=O)N2CCC(c3nc(C4=NOC(c5ccccc5)C4)cs3)CC2)cc1 (stereo not shown) [Compound 1b] | significant analgesic effects | clear dose-dependent effects down to 5 mg/kg | –
3 | O=C(Oc1cccnc1)N1CCC(c2nc(C3=NOC(c4ccccc4)C3)cs2)CC1 (stereo not shown) [Compound 1o] | did not produce analgesia | – | –
4 | COc1ccc(OC(=O)N2CCC(c3nc(C4=NOC(c5ccccc5)C4)cs3)CC2)cc1 (stereo not shown) [Compound 1p] | did not produce analgesia | – | –
5 | O=C(Nc1cnccn1)N1CCC(c2nc(C3=NOC(c4ccccc4)C3)cs2)CC1 (stereo not shown) [Compound 2e] | significant analgesic effects | failed to produce significant analgesia | –
6 | O=C(Nc1cccnn1)N1CCC(c2nc(C3=NOC(c4ccccc4)C3)cs2)CC1 (stereo not shown) [Compound 2f] | significant analgesic effects | failed to produce significant analgesia | –
7 | O=C(Nc1ccccc1)N1CCN(c2nc(-c3ccccc3)ns2)CC1 [JNJ-1661010] | – | – | Recovery of FAAH activity after dialysis (human FAAH): ~30%
8 | O=C(Nc1cccnc1)N1CCC(Cc2cccc(Oc3ccc(C(F)(F)F)cn3)c2)CC1 [PF-3845] | – | – | kinact reported for other chemotypes (FAAH): 0.0033 s⁻¹
